Results from paper PMC7377239, “Cardiovascular Effects of Polychlorinated Biphenyls and Their Major Metabolites” (Environmental Health Perspectives, 2020).
Where two headings read alike, the source gives them in different places.

Key:
[1] = tested on: iCell endothelial cells (human iPSC-derived ECs); assay: High-content imaging cytotoxicity in iCell endothelial cells, 24 h; format: cell-based; details: Homo sapiens, Endothelial cell, iPSC-EC, 24 hr; for viability at 0.1 µM / activity at 0.1 µM: 0.10 µM; for minimal effective concentration: top concentration 100.00 µM
Experimental: The culture conditions of iCell®-endothelial cells were as reported elsewhere ([Iwata et al. 2017]). Briefly, T75 flasks were coated with a fibronectin solution ( 3 μg/cm^2 ) followed by incubation for 1–2 h. Cells were thawed for 3 min in a 37°C water bath. Thawed cells were added to maintenance medium made of VascuLife VEGF Medium Complete Kit, excluding the supplied FBS, and iCell® Endothelial Cells Medium Supplement. The final formulation of the maintenance medium is detailed in ([Iwata et al. 2017]). The aliquoted fibronectin solution was aspirated from the T75 flasks, and cells were seeded at 1.0×10^4 cells/cm^2 . Cells were maintained at 37°C and 5% CO2 with media changes occurring every 2 d and passaged every 3–4 d using TrypLE™ Express. All experiments were conducted on cells between passages 1 and 5.
Cytotoxicity was assessed in parallel experiments. For iCell®-endothelial cells, 384-well plates were coated with a 30μg/mL fibronectin solution ( 10μL/well ) and incubated for 2 h at RT. iCell®-endothelial cells were dissociated with TrypLE™ Express and prepared into a solution to achieve 750 cells per well and 50μL of total volume. The fibronectin solution was removed from the 384-well plate, and cells were plated. For HUVECs, similar dissociation and the same cell density were used for plating with the exclusion of the fibronectin solution. Cells were incubated at 37°C and 5% CO2 until a monolayer was formed, typically 3–5 d. 2×PCB plates were created with the requisite maintenance medium. Before treatment, the medium in the wells was exchanged to 25μL/well of fresh maintenance medium. 2×PCB chemical solutions ( […] ) were added. After 24 h incubation at 37°C and 5% CO2 , cells were stained with Hoechst 33342, MitoTracker™ Orange, and calcein AM for 20 min before replacing the staining media with FluoroBright DMEM. Cell culture plates were imaged using the ImageXpress® Micro Confocal high-content imaging system (Molecular Devices). Images were acquired at 10× magnification with DAPI, TRITC, or FITC filter (Hoechst 33342, MitoTracker™, or calcein AM, respectively). The multiwavelength cell scoring applications module in MetaXpress™ (Molecular Devices) was used to analyze the images.
(§1) Phenotypic responses were quantitatively assessed using concentration–response modeling as detailed elsewhere ([Sirenko et al. 2017]). Briefly, phenotypic readouts were normalized to vehicle controls and fit to a four-parameter logistic model in R studio software (version 3.1.1; R Development Core Team). Following EPA guidance on dose–response modeling, a cutoff of one standard deviation across means of vehicle control (i.e., 0.5% vol/vol DMSO in cell culture media) wells was applied to determine the point-of-departure (POD) values ([U.S. EPA 2012]). In the absence of a concentration–response, the highest tested concentration (i.e., 100μM ) was assigned as “no observable adverse effect level.” The concentration–response assessment R script, as well as templates for vehicle and concentration–response data, are available as a supplement to Sirenko et al. ([2017]). The ability of physicochemical properties to predict differences in PODs were evaluated by multiregression and mixed-effects modeling using R.

HUVECs = assay: Tube formation (tubulogenesis) assay in HUVECs, 18 h; format: cell-based, human; details: Homo sapiens, HUVEC, 18 h, HUVECs; for activity at 0.1 µM: 0.10 µM; for minimal effective concentration: top concentration 100.00 µM
Experimental: Similar to the cultivation of iCell®-endothelial cells, HUVEC maintenance and experimentation are detailed elsewhere ([Iwata et al. 2017]). Briefly, HUVECs were thawed, seeded, and grown in T75 tissue culture flasks in Medium 199 with EGM™-2 BulletKits™. HUVECs were incubated at regular cell culture conditions, 37°C and 5% CO2 , and passaged every 2–3 d using TrypLE™ Express. To ensure adequate endothelial function, experiments were performed with cells between passages 1 and 5.
Tube formation assays were performed on Geltrex™ LDEV-free reduced growth factor basement membrane using both iCell®-endothelial cells and HUVECs in 384-well format exactly as detailed in Iwata et al. ([2017]). Negative controls included media-only and vehicle control (i.e., 0.5% vol/vol DMSO in cell culture media) wells. Positive assay controls were consistent with previously published reports ([Iwata et al. 2017]) and included TAB ( 50μM ) as a cytotoxic control, and nocodazole ( 0.01–1μM ), suramin ( 0.5–50μM ), histamine ( 0.1–100μM ), and chloroquine ( 1–500μM ) as chemicals associated with specific effects on ECs. Each test chemical was screened in triplicate for each concentration. Briefly, for iCell®-endothelial cells, starvation media consisted of VascuLife® basal medium with 4 mM L-glutamine LifeFactor and 0.1% iCell®-endothelial cells medium supplement. To counter dilution effects, a 2× concentration of the HUVEC maintenance medium supplemented with additional VEGF was created (EGM™-2 BulletKits™ at 2× concentration; also the VEGF component was replaced with 12.5 ng/mL VEGF). Geltrex™ LDEV-free reduced growth factor basement membrane was thawed overnight and dispensed into 384-well plates ( 10μL/well ) with tapping and rotating to evenly coat. The plates were incubated for 1 h in a cell culture incubator at 37°C and 5% CO2 . A 2× PCB plate (containing all of the PCBs and metabolites in dose–response) was prepared in basal media and added, 25μL per well, to the Geltrex™ coated plates. On separate plates, cells were seeded 7,500 (iPSC- ECs) or 3,500 (HUVEC) cells/well. Cells were exposed to chemicals overnight at 37°C and 5% CO2 and stained with 3× concentration of calcein AM ( 25μL /well, 6μmol/L ) for 15 min before imaging. Images were captured at 4× magnification with the FITC filter (calcein AM). Images were analyzed with the angiogenesis module software within MetaXpress™ (Molecular Devices).
as §1

[2] = 0.00 µM control = 100.00, read-out: endo.cyto.24hr
[3] = 0.00 µM control = 100.00, read-out: endo.mito.24hr
[4] = 0.00 µM control = 100.00, read-out: endo.mitoint.24hr
[5] = 0.00 µM control = 100.00, read-out: endo.nma.24hr
[6] = 0.00 µM control = 100.00, read-out: endo.tc.24hrs
[7] = 0.00 µM = 100.00, read-out: huvec.mtl.18hr
[8] = 0.00 µM = 100.00, read-out: huvec.tlps.18hr
[9] = 0.00 µM = 100.00, read-out: huvec.tta.18hr
[10] = 0.00 µM = 100.00, read-out: huvec.ttl.18hr

With `Oc1ccc(O)c(-c2ccc(Cl)cc2)c1` [2',5'-DiOH PCB3] the viability at 0.01 µM [1, 2] was 90.8%, the activity at 0.01 µM [1, 3] was 91.1% and the activity at 0.01 µM [1, 4] was 127%. The activity at 0.01 µM [1, 5] was 103%, the viability at 0.01 µM [1, 6] was 90.8% and the viability at 0.1 µM [1, 2] was 93.4%. The activity at 0.1 µM [1, 3] was 94%, the activity at 0.1 µM [1, 4] was 109% and the activity at 0.1 µM [1, 5] was 101%. It also gave a viability at 0.1 µM [1, 6] of 93.5%, a viability at 1 µM [1, 2] of 99.2% and an activity at 1 µM [1, 3] of 99.2%. The activity at 1 µM [1, 4] was 104%, the activity at 1 µM [1, 5] was 98.6% and the viability at 1 µM [1, 6] was 99.2%. For the same compound, the viability at 10 µM [1, 2] was 86.5%, the activity at 10 µM [1, 3] was 86.6% and the activity at 10 µM [1, 4] was 108%. For the same compound, the activity at 10 µM [1, 5] was 101%, the viability at 10 µM [1, 6] was 86.5% and the viability at 100 µM [1, 2] was 12.2%. It also gave an activity at 100 µM [1, 3] of 2.34%, an activity at 100 µM [1, 4] of 28.7% and an activity at 100 µM [1, 5] of 184%. For the same compound, the viability at 100 µM [1, 6] was 17%, the minimal effective concentration ([1]; read-out: endo.cyto.24hr POD) was 6.71 µM and the minimal effective concentration ([1]; read-out: endo.mito.24hr POD) was 6.71 µM. For the same compound, the minimal effective concentration ([1]; read-out: endo.mitoint.24hr POD) was 44.6 µM, the minimal effective concentration ([1]; read-out: endo.nma.24hr POD) was 13.7 µM and the minimal effective concentration ([1]; read-out: endo.tc.24hrs POD) was 5.78 µM. It also gave an activity at 0.01 µM (HUVECs; [7]) of 99%, an activity at 0.01 µM (HUVECs; [8]) of 90.3% and an activity at 0.01 µM (HUVECs; [9]) of 127%. It also gave an activity at 0.01 µM (HUVECs; [10]) of 123%, an activity at 0.1 µM (HUVECs; [7]) of 104% and an activity at 0.1 µM (HUVECs; [8]) of 135%. It also gave an activity at 0.1 µM (HUVECs; [9]) of 107%, an activity at 0.1 µM (HUVECs; [10]) of 107% and an activity at 1 µM (HUVECs; [7]) of 91.9%. It also gave an activity at 1 µM (HUVECs; [8]) of 93.2%, an activity at 1 µM (HUVECs; [9]) of 87.2% and an activity at 1 µM (HUVECs; [10]) of 90.1%. It also gave an activity at 10 µM (HUVECs; [7]) of 64.1%, an activity at 10 µM (HUVECs; [8]) of 21.9% and an activity at 10 µM (HUVECs; [9]) of 19.3%. For the same compound, the activity at 10 µM (HUVECs; [10]) was 19.9%, the activity at 100 µM (HUVECs; [7]) was 57.8% and the activity at 100 µM (HUVECs; [8]) was 9.87%. It also gave an activity at 100 µM (HUVECs; [9]) of 0.82%, an activity at 100 µM (HUVECs; [10]) of 1.52% and a minimal effective concentration (HUVECs; read-out: huvec.mtl.18hr POD) of 1.26 µM. For the same compound, the minimal effective concentration (HUVECs; read-out: huvec.tlps.18hr POD) was 1.55 µM, the minimal effective concentration (HUVECs; read-out: huvec.tta.18hr POD) was 1.39 µM and the minimal effective concentration (HUVECs; read-out: huvec.ttl.18hr POD) was 1.23 µM.
